assay: in vitro; settings: human, hela cells, % viability

First: Cc1cc(=O)oc2ccc(OCC(=O)Nc3ccc(S(=O)(=O)O)cc3)cc12 [CBK263185N]
Second: O=C(O)c1cccc(NS(=O)(=O)c2ccc(Cl)c(C(=O)Nc3ccc(Br)cc3)c2)c1 [CBK263241]
The viability at 28.5 h, 10 µM of the first is higher: 100% for the first, 87% for the second.

First: CCOc1cccc(NC(=O)/C(C#N)=C\c2cc(C)n(-c3cccc(C(=O)O)c3)c2C)c1 [CBK263186]
Second: CCOc1cccc(NC(=O)/C(C#N)=C\c2cc(OC)c(O)cc2Br)c1 [CBK263189]
The viability at 28.5 h, 10 µM of the first is higher: 115% for the first, 95.2% for the second.

Compared with `Nn1cnn2c(SCc3ccccc3)nnc12` [CBK263188], `Nn1cnn2c(SCC(=O)c3ccccc3)nnc12` [CBK263194] is lower in viability at 28.5 h, 10 µM: 112% for the first, 99.8% for the second.

Going from `Cn1ccnc1SCC(=O)Nc1ccc(S(N)(=O)=O)cc1` [CBK263190] to `COc1ccc(C(=O)CSc2nnc3n(N)cnn23)cc1` [CBK263201], the viability at 28.5 h, 10 µM rises from 84.6% to 94.6%.

Compared with `Nn1cnn2c(SCc3ccc(Cl)cc3)nnc12` [CBK263193], `Fc1cccc(-c2nnc(SCc3nc4ccccc4[nH]3)n2-c2ccccc2)c1` [CBK263256] is lower in viability at 28.5 h, 10 µM: 106% for the first, 95.3% for the second.

Compared with `O=C(O)c1cccc(-c2ccc(/C=N/Nc3ccc([N+](=O)[O-])cn3)o2)c1` [CBK263196], `O=C(Nc1ccccc1C(=O)O)c1cc(S(=O)(=O)Nc2cccc([N+](=O)[O-])c2)ccc1Cl` [CBK263234] is higher in viability at 28.5 h, 10 µM: 89.9% for the first, 90.3% for the second.

First: CC(=O)c1ccc(NS(=O)(=O)c2cc(C(=O)Nc3ccccc3C(=O)O)ccc2Br)cc1 [CBK263203]
Second: O=C(Nc1ccccc1C(=O)O)c1cc(S(=O)(=O)Nc2ccc(F)cc2)ccc1Cl [CBK263248]
The viability at 28.5 h, 10 µM of the first is lower: 97.2% for the first, 120% for the second.

Compared with `O=C(/C=C/c1cn(-c2ccccc2)nc1-c1cccnc1)c1ccc(-c2ccccc2)cc1` [CBK263213], `c1ccc(-n2nnnc2SCc2cccc(CSc3nnnn3-c3ccccc3)n2)cc1` [CBK263258] is lower in viability at 28.5 h, 10 µM: 95.5% for the first, 90.4% for the second.

Compared with `CCC(Sc1ncccc1C(=O)O)C(=O)O` (stereo not drawn) [CBK263216], `O=C(O)C[S+]([O-])c1ccccc1C(=O)O` (stereo not drawn) [CBK263244] is lower in viability at 28.5 h, 10 µM: 98.4% for the first, 96.3% for the second.

Going from `CCC1(CC)Cc2ccccc2-c2nc(NN)n(Cc3ccccc3)c(=O)c21` [CBK263217] to `C=CCn1c2ccccc2c2nnc(SCC(=O)OCN3C(=O)c4ccccc4C3=O)nc21` [CBK263231], the viability at 28.5 h, 10 µM rises from 102% to 106%.

First: Cc1ccc(C(=O)Nc2ccc(C(=O)O)cc2)cc1S(=O)(=O)NCc1ccccc1 [CBK263219]
Second: CN(C)S(=O)(=O)c1ccc(C(=O)Nc2ccc(Br)cc2C(=O)c2ccccc2)cc1 [CBK263243]
The viability at 28.5 h, 10 µM of the first is higher: 101% for the first, 81.1% for the second.

First: O=C(O)c1cccc(S(=O)(=O)N(CCO)CCO)c1 [CBK263221]
Second: O=S(=O)(NCc1ccccc1)c1cccc(S(=O)(=O)NCc2ccccc2)c1 [CBK263250]
The viability at 28.5 h, 10 µM of the first is higher: 93.2% for the first, 91.5% for the second.

Compared with `O=C(Nc1ccccc1[N+](=O)[O-])c1cc(S(=O)(=O)Nc2ccccn2)ccc1Cl` [CBK263229], `O=C(Nc1ccccc1[N+](=O)[O-])c1cc(S(=O)(=O)NCc2ccccc2)c(Cl)cc1Cl` [CBK263240] is higher in viability at 28.5 h, 10 µM: 87.8% for the first, 91.5% for the second.

Compared with `O=C(Nc1ccc(Br)cc1)C1CC(O)CN1C(=O)OCc1ccccc1` (stereo not drawn) [CBK263233], `COc1ccc(NC(=O)c2ccc(N3CCN(Cc4ccccc4)CC3)c([N+](=O)[O-])c2)cc1` [CBK263260] is higher in viability at 28.5 h, 10 µM: 101% for the first, 106% for the second.

First: Cc1cc(CN2CCOCC2)oc1C(=O)O [CBK263239C]
Second: O=C(Nc1ccccc1-c1nc2ccccc2[nH]1)c1ccc(S(=O)(=O)N2CCCC2)cc1 [CBK263252]
The viability at 28.5 h, 10 µM of the first is higher: 104% for the first, 88.5% for the second.

Compared with `O=S(=O)(NCc1ccccc1)c1ccc(Cl)c(S(=O)(=O)NCc2ccccc2)c1` [CBK263251], `Nc1ccc(S(=O)(=O)Nc2nccc(/C=C/c3ccc(Cl)cc3)n2)cc1` [CBK263254] is higher in viability at 28.5 h, 10 µM: 81.9% for the first, 105% for the second.

With `Cc1cc(-c2ccc([N+](=O)[O-])cc2)nc2ccc3ccccc3c12` [CBK263253C] the viability at 28.5 h, 10 µM was 90.3%.

From PMC12040169 (PLOS Biology, 2025)
